# According to patent US20240075017A1 (priority 2021, published 2024):
# Test system: SARS-CoV-2 (B.1.351, beta variant)
# Parameters: species or system C57BL/6 mice
# Conditions: mouse, in vivo
smiles,measurement,value
"Nc1nccc2c1ncn2[C@@H]1C=C(CO)[C@@H](O)[C@H]1O [DZNep, 3-deazaneplanocin A]","abundance of viral transcripts N, M and E in lung RNA by RT-qPCR",significant DZNep-dependent reduction in abundance of viral transcripts
same,lung infectious viral load (titration of lung homogenate supernatant on Vero E6 cells),significant reduction of the viral load in the lungs
